Test [1] relates to Mongrel dogs (left ventricular pressure, dp/dt max). Put plainly: Cardiotonic activity (dp/dt max change, anesthetized dogs, i.v.). In kind it is in vivo. As to conditions: Canis lupus familiaris, intravenous, read-out: dp/dt M.C. (percentage of dp/dt max changes). The method, then:
Test Method A (Cardiotonic activity): Mongrel dogs of either sex were anesthetized with sodium pentobarbital, 35 mg/kg, i.p. The animals were allowed to breathe spontaneously. The left carotid artery was isolated and a catheter (USCI, #8F) filled with heparinized saline was inserted and advanced into the left ventricle. the catheter was connected to a pressure transducer (Nihonkohden, MPU-0.5A) to measure the left ventricular pressure, from which dp/dt max was derived by analog computing. To measure the systemic blood pressure the left femoral artery was cannulated. The blood pressure pulse was used to trigger a heart rate meter. Another catheter was positioned in the vena cave through right femoral vein for injection of drugs. Systemic blood pressure, left ventricular pressure, dp/dt max and heart rate were recorded simultaneously on a polygram (Nihonkohden, RJG-4008). Test compound was dissolved in distilled water (0.2 ml/kg) or dimethyl sulfoxide (0.04 ml/kg) and injected into the femoral veing. The parameters after dosing were compared with those during the predosing period. Test results were represented in terms of percentage of dp/dt max changes (dp/dt M.C) calculated by following formula, and are shown in table 1. [formula]

The test system of test [2] is platelet aggregation induced by adenosine diphosphate (ADP). Put plainly: Anti-platelet activity: ADP-induced aggregation of rabbit platelet rich plasma. The test is classed as cell-based. As to conditions: Oryctolagus cuniculus, 2 min, rabbit PRP, ADP 2.5 μM, pH 7.4, 37° C., read-out: ID50 ADP. As for the experimental part: (§1) Test Method B (Anti-platellet activity):
(§2) Platelet rich plasma (PRP) which contains 6.5-7.5×10^8 platelet/ml was prepared from rabbit blood. To the 200 μl of PRP, 5 μl of calcium chloride (1 mM) and 50 μl of pH 7.4 Tris-acetate solution (5 mM) containing 120 mM NaCl and test compound were added successively, and then stirred for 2 min. at 37° C. To the solution, 5 μl of adenosine diphosphate (ADP) (2.5 μM) or collagen (2.5 μg/ml) was added as an aggregation inducer. Aggregation was measured by using an aggregometer (NKK HEMA TRACER 1).

Test [3] relates to platelet aggregation induced by collagen. Put plainly: Anti-platelet activity: collagen-induced aggregation of rabbit platelet rich plasma. In kind it is cell-based. As to conditions: Oryctolagus cuniculus, 2 min, rabbit PRP, collagen 2.5 μg/ml, pH 7.4, 37° C., read-out: ID50 Collagen. As for the experimental part: as §1, §2
For test [4], the system named is Mongrel dogs (cerebral blood flow). Put plainly: Cerebrovascular vasodilative activity (cerebral blood flow, anesthetized dogs, i.v.). In kind it is in vivo. As to conditions: intravenous. As for the experimental part:
Test Method C (Cerebrovescular vasodilative activity):
Mongrel dogs of either sex were anesthetized with sodium pentobarbital (35 mg/kg. i.p.). After the external carotid artery was ligated, a flowmeter probe was fitted to the common carotid artery. Polyethylene cannulas were inserted in the femoral artery for measurement of blood pressure and in the saphenous vein for injection of drug. Blood pressure was measured with a pressure transducer and the arterial pulse was also used to trigger a heart rate meter. Blood pressure, heart rate and cerebral blood flow (C.B.F.) were recorded on a polygraph.
Test compound was dissolved in an equimolar solution of hydrochloric acid and diluted with water (0.2 ml/kg), and injected intravenously. The prarmeters after dosing were compared with those during the predosing period.

In test [5] the test system is uninephrectomized DOCA/saline male Wistar rats (mean arterial pressure). Put plainly: Antihypertensive activity (DOCA hypertensive rats, oral). The test is classed as in vivo. To be noted: 1.0 mg/kg. The method, then: Test Method D (Antihypertensive activity):
Five-week old male Wistar rats were uninephrectomized under anesthesia. Deoxycorticosterone acetate (DOCA) (30 mg/kg), suspended in peanut oil, was injected subcutaneously twice a week and 1% saline was substituted for the drinking water. Animals with mean blood pressure 150-200 mmHg were used for experiment between 5 and 7 weeks after surgery.
The test compounds were administered orally. Blood pressure was measured at the femoral artery by means of a pressure transducer and recorded as electrically integrated values of mean arterial pressure.

Where a name gives a salt, the structure may show the parent alone.

Results on 14 compounds are retold here after patent US4746664A, “Substituted-3,4-dihydro-4-(2,4,6-trimethoxyphenylimino)-2(1H)-pyrimidone s useful as cardiotonic, antihypertensive, cerebrovascular vasodilator and anti-platelet agent” (Fujisawa Pharmaceutical Co., Ltd., priority 1983, dated 1988).

With `COc1ccc(-c2cc(=Nc3ccc(O)cc3)n(C)c(=O)n2C)cc1OC` [Example 59, 3,4-Dihydro-6-(3,4-dimethoxyphenyl)-1,3-dimethyl-4-(4-hydroxyphenylimino)-2(1H)-pyrimidinone], in test [1], the change in vivo at 0.1 mg/kg came to 57% and the change in vivo at 1 mg/kg is 158%. Moreover, the IC50 in test [2] was 3600 nM. In addition, the IC50 in test [3] was 230 nM.

In the case of `COc1ccc(-c2cc(=Nc3cccnc3)n(C)c(=O)n2C)cc1OC` [Example 50, 3,4-dihydro-6-(3,4-dimethoxyphenyl)-1,3-dimethyl-4-(3-pyridylimino)-2(1H)-pyrimidinone dihydrochloride], the change in vivo at 1 mg/kg in test [1] is 98%.

Consider `CCCn1c(-c2ccc(OC)c(OC)c2)cc(=Nc2c(C)cc(C)cc2C)n(C)c1=O` [Example 65, 3,4-Dihydro-6-(3,4-dimethoxyphenyl)-3-methyl-1-n-propyl-4-(2,4,6-trimethylphenylimino)-2(1H)-pyrimidinone], for which, in test [1], the change in vivo at 0.1 mg/kg came out at 50% and the change in vivo at 1 mg/kg was found to be 206%.

On to `COc1ccc(-c2cc(=Nc3c(C)cc(C)cc3C)n(C)c(=O)n2C)cc1` [Example 62, 3,4-Dihydro-1,3-dimethyl-6-(4-methoxyphenyl)-4-(2,4,6-trimethylphenylimino)-2(1H)-pyrimidinone], for which the change in vivo at 1 mg/kg in test [1] turned out to be 102%.

For `COc1ccc(-c2cc(=Nc3ccccc3)n(C)c(=O)n2C)cc1OC` [Example 55, 3,4-Dihydro-6-(3,4-dimethoxyphenyl)-1,3-dimethyl-4-phenylimino-2(1H)-pyrimidinone], the results for the C.B.F. increase in test [4] (0.1 mg/kg) and in test [4] (1.0 mg/kg) were 38.0% and 77.0%, respectively.

With `COc1ccc(-c2cc(=Nc3c(C)cc(C)cc3C)[nH]c(=O)n2C)cc1OC` [Example 69, 3,4-Dihydro-6-(3,4-dimethoxyphenyl)-1-methyl-4-(2,4,6-trimethylphenylimino)-2(1H)-pyrimidinone], in test [1], the change in vivo at 0.01 mg/kg amounted to 45% and the change in vivo at 0.1 mg/kg came to 42%.

On to `COc1ccc(-c2cc(=Nc3c(C)cccc3C)n(C)c(=O)n2C)cc1OC` [Example 58, 3,4-Dihydro-6-(3,4-dimethoxyphenyl)-1,3-dimethyl-4-(2,6-dimethylphenylimino)-2(1H)-pyrimidinone], for which, in test [1], the change in vivo at 0.1 mg/kg worked out at 84%. Further, the change in vivo at 1 mg/kg in test [1] is 145%. The IC50 amounted to 340 nM in test [2] and 190 nM in test [3].

With `Nc1cc(-c2ccncc2)c[nH]c1=O` [Amrinone, 3-Amino-5-(4-pyridyl)-2(1H)-pyridinone, reference compound], in test [1], the change in vivo at 0.1 mg/kg worked out at 9% and the change in vivo at 1 mg/kg was found to be 80%.

In the case of `CCn1c(-c2ccc(OC)c(OC)c2)cc(=Nc2c(C)cc(C)cc2C)n(C)c1=O` [Example 72, 3,4-dihydro-6-(3,4-dimethoxyphenyl)-1-ethyl-3-methyl-4-(2,4,6-trimethylphenylimino)-2(1H)-pyrimidinone], in test [1], the change in vivo at 0.01 mg/kg turned out to be 12%. Besides, in test [1], the change in vivo at 0.1 mg/kg was found to be 95%. Moreover, the IC50 in test [2] amounted to 790 nM; in test [3], 170 nM. In addition, the values for the C.B.F. increase in test [4] (0.1 mg/kg) and in test [4] (1.0 mg/kg) were 35.0% and 59.0%, respectively. For the same compound, the “Effect Max (maximum decrease of blood pressure)” value in test [5] is recorded as 38.0%.

For `COc1ccc(-c2cc(=Nc3ccc(Cl)cc3C)n(C)c(=O)n2C)cc1OC` [Example 49, 4-(4-Chloro-2-methylphenylimino)-3,4-dihydro-6-(3,4-dimethoxyphenyl)-1,3-dimethyl-2(1H)-pyrimidinone], the change in vivo at 0.1 mg/kg in test [1] came out at 68%.

On to `COc1ccc(-c2cc(=Nc3cc(OC)c(OC)c(OC)c3)n(C)c(=O)n2C)cc1OC` [Example 56, 3,4-Dihydro-6-(3,4-dimethoxyphenyl)-1,3-dimethyl-4-(3,4,5-trimethoxyphenylimino)-2(1H)-pyrimidinone], for which, in test [1], the change in vivo at 0.1 mg/kg came out at 44% and the change in vivo at 1 mg/kg turned out to be 88%. In test [4] (0.1 mg/kg), the C.B.F. increase is 50.0%. In addition, in test [4] (1.0 mg/kg), the C.B.F. increase is 52.0%.

Take `COc1cc(OC)c(N=c2cc(-c3ccc(OC)c(OC)c3)n(C)c(=O)n2C)c(OC)c1` [Example 57, 3,4-Dihydro-6-(3,4-dimethoxyphenyl)-1,3-dimethyl-4-(2,4,6-trimethoxyphenylimino)-2(1H)-pyrimidinone]: the change in vivo at 0.1 mg/kg in test [1] is 60%. Moreover, the change in vivo at 1 mg/kg in test [1] is 126%. Also, the IC50 was found to be 300 nM in test [2] and 420 nM in test [3]. For the same compound, the C.B.F. increase in test [4] (0.01 mg/kg) is given as 59.0%; in test [4] (0.1 mg/kg), 57.0%. The “Effect Max (maximum decrease of blood pressure)” value in test [5] was 44.0%.

As to `COc1ccc(-c2cc(=Nc3c(C)cc(C)cc3C)n(C)c(=O)[nH]2)cc1OC` [Example 64, 3,4-Dihydro-6-(3,4-dimethoxyphenyl)-3-methyl-4-(2,4,6-trimethylphenylimino)-2(1H)-pyrimidinone], in test [1], the change in vivo at 0.1 mg/kg was 98% and the change in vivo at 1 mg/kg was 93%.

`COc1ccc(-c2cc(=Nc3c(C)cc(C)cc3C)n(C)c(=O)n2C)cc1OC` [Example 48, 3,4-dihydro-6-(3,4-dimethoxyphenyl)-1,3-dimethyl-4-(2,4,6-trimethylphenylimino)-2(1H)-pyrimidinone]: the change in vivo at 0.01 mg/kg in test [1] came to 43%. The IC50 in test [2] was 240 nM; in test [3], 150 nM. The C.B.F. increase is listed as 40.0% in test [4] (0.01 mg/kg) and 57.0% in test [4] (0.1 mg/kg).
